{"source": "patent US9149035B2", "about": "“Antimicrobial composition” (CONVATEC TECHNOLOGIES, INC., priority 2005, dated 2015)", "key": {"[1]": {"test_system": "Ps aeruginosa", "details": "poloxamer gel (biofilm state) vs without"}, "[2]": {"test_system": "Serratia marcescens"}, "[3]": {"test_system": "C. kruzei", "details": "poloxamer gel (biofilm state) vs without"}, "[4]": {"test_system": "Ps aeruginosa", "experiment": "Corrected zone of inhibition of hydrated wound dressings on Poloxamer gel with MHB (biofilm bacteria)", "assay_type": "cell-based", "details": "bacteria grown in the biofilm state (poloxamer gel)", "text": "The antimicrobial dressings used in this study were ActicoatTM (Smith and Nephew) and AQUACEL® Ag Hydrofiber® (ConvaTec). Acticoat is a nanocrystalline silver antimicrobial barrier dressing which consists of a rayon/polyester non-woven inner core laminated between two layers of silver-coated high density polyethylene mesh (HDPE). The layers are held together with ultrasound […] comprised of sodium carboxymethylcellulose Hydrofiber® and ionic silver. The silver cations in AQUACEL® Ag are associated with the individual highly absorbent anionic carboxymethylcellulose fibres of the Hydrofiber® dressing. AQUACEL® Hydrofiber® dressing (without silver) was also used as a control. […] The mean dressing size was then subtracted from the mean zone of inhibition to determine the corrected zone of inhibition (CZOI). A CZOI test allows for any inherent variability in the shape and size of zones created by the silver dressings which may change in dimension following hydration."}, "[5]": {"test_system": "Pseudomonas aeruginosa, Serratia marcescens, vancomycin resistant Enterococcus (VRE) and methicillin resistant Staphylococcus aureus (MRSA)", "details": "EDTA 0.1-40% weight by volume; planktonic and biofilm state"}, "[6]": {"test_system": "Seven antibiotic resistant microorganisms"}}, "note": "Where two headings read alike, the source gives them in different places."}
{"smiles": "O=C(O)CN(CCN(CC(=O)O)CC(=O)O)CC(=O)O", "note": "[EDTA, Ethylenediaminetetra-acetic acid]", "values": [{"measurement": "Zones of inhibition with poloxamer compared with without", "setting": "[1]", "result": "larger zones"}, {"measurement": "Zones of inhibition", "setting": "[2]; 5% EDTA", "result": "no zones"}, {"measurement": "Zones of inhibition", "setting": "[2]; 10% EDTA", "result": "no zones"}, {"measurement": "Zones of inhibition with poloxamer compared with without", "setting": "[3]", "result": "larger zones"}, {"measurement": "Effect of EDTA on the effects of ionic silver", "setting": "[4]", "result": "enhances"}, {"measurement": "Killing of microorganisms", "setting": "[5]", "result": "effective in killing"}, {"measurement": "Zones of inhibition", "setting": "[6]; 0.1% EDTA, any organism studied", "result": "no zones of inhibition were evident"}, {"measurement": "Zones of inhibition", "setting": "[6]; 40% EDTA, all organisms tested", "result": "evident"}, {"measurement": "Zones of inhibition in the presence of poloxamer compared with planktonic", "setting": "[6]; poloxamer gel (biofilm state) vs without", "result": "slightly smaller"}]}
